Results from patent US6303617A, “Serotonin-like 9-substituted hypoxanthine and methods of use” (Neotherapeutics, Inc., priority 1999, dated 2001).

Legend:
[1] = test system: monoamine oxidase A/B; test: Inhibition of monoamine oxidase A/B catalytic activity (mouse brain mitochondria, tyramine substrate); type: biochemical
Protocol: Experiments were carried out to determine whether the serotonin analogue N-(2-(5-hydroxyindol-3-yl)ethyl)-3-(6-oxohydropurin-9-yl)propanamide (AIT-202) inhibited monoamine oxidases A and B. These experiments were performed as follows:
Mice (3-5 mice) were sacrificed by cervical dislocation. The brains were isolated and placed immediately in 10 ml cold isolation medium (IM) (500 μM EDTA, 5 mM HEPES, 0.25 M sucrose, and 10 mg/L bovine serum albumin (BSA)). The brains were minced and rinsed twice with 10 mL IM. The brains were then homogenized (5-6 strokes) in 10 mL IM. A volume (20 mL) of IM was then added and the homogenized preparation was centrifuged 8-10 minutes at 600×g at 4° C. The supernatant was transferred to a new tube. […]
For the enzyme assays, 1.0 mL to 1.5 mL 50 mM sodium phosphate, pH 7.4 containing 5 μM scopoletin and 2 U/mL horseradish peroxidase) were aliquoted in the wells of a Falcon 24-well plate (reaction mixture or RM). […] The preincubation was carried out in the Cytofluor® 4000 (PerSeptive Biosystems) and the baseline fluorescence at λex =360 nm and λem =460 nm was recorded. After 6 min, the reading was interrupted and 150-166 μM tyramine (monoamine oxidase A and monoamine oxidase B substrate) or the corresponding amount of water were added according to the plate layout. The reading was continued for approximately 30 minutes at 3-minute intervals. […]

[2] = test system: obese mice; test: Control of obesity in naturally obese mice, 14 days oral; type: in vivo, mouse; details: naturally obese mice (>45 g), daily oral gavage, three doses, FIG. 4
Protocol: The activity of N-(2-(5-hydroxyindol-3-yl)ethyl)-3-(6-oxohydropurin-9-yl)propanamide (AIT-202) in controlling obesity in mice was tested. Mice from the existing animal colony of NeoTherapeutics (Irvine, Calif.) which were naturally obese (greater than 45 grams in weight) were treated with N-(2-(5-hydroxyindol-3-yl)ethyl)-3-(6-oxohydropurin-9-yl)propanamide daily orally by gavage for 14 days. The mice were dosed with one of three doses of N-(2-(5-hydroxyindol-3-yl)ethyl)-3-(6-oxohydropurin-9-yl)propanamide or vehicle (0.5% methylcellulose). Their weight and food consumption were monitored daily.

[3] = test system: total serum cholesterol; test: Lowering of total serum cholesterol in mice; type: in vivo, mouse; details: 300 mg/kg oral, 24 hours before determination; 5 mice; vs control group; decrease of 15% or more considered significant
Protocol: The activity of N-(2-(5-hydroxyindol-3-yl)ethyl)-3-(6-oxohydropurin-9-yl)propanamide (AIT-202) in lowering total serum cholesterol was tested in mice. Mice (5 mice) were administered N-(2-(5-hydroxyindol-3-yl)ethyl)-3-(6-oxohydropurin-9-yl)propanamide orally at a dosage of 300 mg/kg body weight for 24 hours before cholesterol determination. Total serum cholesterol was determined by standard methods. […] A decrease of 15% or more is considered significant in this test.

[4] = test system: total serum cholesterol; test: Total serum cholesterol in Swiss Webster mice fed a high cholesterol or normal diet; type: in vivo; details: dosed on days 6 and 7 of diet, serum on day 8; FIG. 5
Protocol: (§1) On days 6 and 7 the mice were given the compound N-(2-(5-hydroxyindol-3-yl)ethyl)-3-(6-oxohydropurin-9-yl)propanamide (AIT-202), a positive control (bezafibrate), or a vehicle. The animals were fasted overnight and on day 8 trunk blood was collected. Total cholesterol and HDL cholesterol were measured in serum.

[5] = test system: HDL cholesterol; test: HDL cholesterol in serum of Swiss Webster mice fed a high cholesterol or normal diet; type: in vivo; details: dosed on days 6 and 7 of diet, serum on day 8; FIG. 5
Protocol: as §1

- effect on the catalytic activity of monoamine oxidase A and B ([1]; 2-150 μM compound, tyramine substrate, FIGS. 2 and 3): significant effect
- IC50 ([1]; estimated, mouse brain mitochondrial protein 0.22-0.24 mg/mL, 150-166 μM tyramine, pH 7.4, 37° C.): ~2000 nM
Compound: O=C(CCn1cnc2c(=O)[nH]cnc21)NCCc1c[nH]c2ccc(O)cc12 [AIT-202, N-(2-(5-hydroxyindol-3-yl)ethyl)-3-(6-oxohydropurin-9-yl)propanamide]
- benefit to treatment in obese mice [2]: There appears to be benefit to treatment
- decrease of total serum cholesterol [3]: 18%
- effect on total serum cholesterol [4]: lowers total serum cholesterol
- effect on HDL cholesterol [5]: raises HDL cholesterol
